Test results published in US4631287A, “Aryl and heteroaryl ethers as agents for the treatment of hypersensitive ailments” (USV Pharmaceutical Corp., priority 1985, dated 1986).
pIC50: −log10 of the molar value.

What was measured:
[1] = system: lipoxygenase pathway (5-HETE production in rat neutrophils); assay: Protocol for Detecting Inhibitors of the Lipoxygenase Pathway (5-HETE production in rat neutrophils); format: cell-based; conditions: Neutrophil, 0.05 h, [14C]-arachidonic acid and Calcium Ionophore A23187, 3 minutes at 30° C., 5-HETE produced, read-out: I50
Experimental: The following protocol describes an assay to detect inhibitors of the lipoxygenase pathway. Such inhibitors are believed to be capable of modulating the biosynthesis of the leukotrienes, a property believed to be useful in treating asthma and inflammatory disease states.
Protocol for Detecting Inhibitors of the Lipoxygenase Pathway
A suspension of rat neutrophils in buffer is incubated for 3 minutes at 30° C. with [^14 C]-arachidonic acid (AA) and Calcium Ionophore A23187. Citric acid (2M) is used to quench the reaction. Following the addition of a trace amount of (^3 H)-5-HETE together with an excess of unlabeled 5-HETE to each tube, the mixture is extracted with chloroform/methanol. The organic layer is washed with dilute acid and an aliquot is transferred to glass tubes and dried. […] After adjusting for the extraction efficiency, the amount (pmole) of [^14 C]-5-HETE in each of the tubes is quantitated by substracting the net pmoles of 5-HETE in the tubes containing buffer alone (blank) from the pmoles of 5-HETE in the tubes containing […]. The ability of the test compounds to modulate the activity of this enzyme is determined by a decrease or increase in the net amount of 5-HETE produced.

[2] = system: leukotriene C4-induced contraction of guinea pig peripheral lung strips; assay: Protocol for SRS-A Antagonists: leukotriene C4-induced contraction of guinea pig peripheral lung strips; conditions: 0.2 nM leukotriene C4, read-out: concentration required for 50% inhibition of 0.2 nM leukotriene C4-induced contraction
Experimental: Leukotrienes, the products of the 5-lipoxygenase pathway of arachidonic acid metabolism, are potent contractile agents with a variety of smooth muscle preparations. […] The following protocol describes an in vitro assay used to test compounds which specifically antagonize the actions of leukotrienes.
Protocol for SRS-A (slow reacting substance of anaphylaxis) Antagonists
Peripheral strips of guinea pig lungs are prepared and hung in tissue baths (Metro #ME-5505, 10 ml) according to the published procedure--(Proc. Nat'l Acad. Sci., U.S.A. Volume 77, pp. 4354-4358, 1980). The strips are thoroughly rinsed in Assay Buffer and then connected with surgical silk thread to support rods from the tissue baths. The rods are adjusted in the baths and the strips connected to the pressure transducers (Grass FT 103 or Gould UC-3). The tissue baths are aerated with 95% oxygen--5% carbon dioxide and maintained at 37° C. The assay buffer has been made as follows: for each liter of buffer the following are added to approximately 800 ml of water distilled in glass-6.87 g NaCl, 0.4 g KCl, 2.1 g NaHCO3, 0.14 g NaH2 PO4.H2 O, 0.21 g MgSO4.7H2 O, and 2.0 g D-glucose. […]
Responses of each tissue to a pre-determined concentration of leukotriene are then obtained. […] The intrinsic activity of the compounds, and their effect on leukotriene-induced contractions are then recorded.

[3] = system: SRS-A component of anaphylactic bronchoconstriction; assay: Bronchial Anaphylaxis in Guinea Pigs with Enhanced Leukotrienes (BAGEL); format: in vivo, guinea pig; conditions: 100 mg/kg, i.d., guinea pigs immunized with ovalbumin
Experimental: Protocol for in vivo Testing of Modulators of SRS-A (slow reacting substances of anaphylaxis)
This test, known as the Bronchial Anaphylaxis in Guinea Pigs with Enhanced Leukotrienes (BAGEL), is based on the procedure published in Agents and Actions, Vol. II, pp. 396-401, 1981, and is performed with guinea pigs actively immunized (14 days) with ovalbumin (2.7 mg/kg, i.p.) and B. pertussis (5×10^9 organisms) as an adjuvant. Prior to challenge with antigen (ovalbumin), the animals are anesthetized and prepared for monitoring pulmonary dynamics by whole body plethysmography. They are treated with an H1 antihistamine (methapyrilene, 2 mg/kg, i.v.) and cyclooxygenase inhibitor (indomethacin; 20 mg/kg, i.p.) in order to enhance the SRS-A component of anaphylactic bronchoconstriction. Bronchoconstriction is quantified as the maximum increase in airway resistance following antigen challenge. The drug is administered either i.p. 10 minutes before challenge, or i.d. 15 minutes before challenge.

COc1ccc(OCc2ccc3ccccc3n2)cc1 [2-(p-methoxyphenoxymethyl) quinoline, 2-(p-Methoxyphenoxymethyl) quinoline]
pIC50 [1]: 6.15
pIC50 [2]: 6.52

c1ccc(OCc2ccc3ccccc3n2)cc1 [2-Phenoxymethyl quinoline]
activity in BAGEL test (bronchoconstriction following antigen challenge) [3]: highly active
pIC50 [1]: 6.30
pIC50 [2]: 6.05
